From patent publication US9833497B2, “Human originated EGF domain proteins and use of the same” (CHENGDU SOURCEBIO LIMITED-LIABILITY COMPANY, priority 2013, dated 2017)

What was measured:
Format in all cases: cell-based
E. coli BL21 = experiment: MIC against Gram-negative bacteria: E. coli BL21
Method in brief: (§1)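 Read-out is absence of bacterial growth, with MIC set at the lowest recombinant protein concentration achieving it. Bacteria, pre-grown in LB to McFarland 0.5 and resuspended, were exposed at 5×10^5 CFU/mL to two-fold diluted human EGF domain proteins in triplicate at 37° C, 175 rpm.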

E. coli DH5α = experiment: Antibacterial activity: MIC and growth curve against E. coli DH5α in 96-well plate; conditions: minimal inhibitory concentration against E. coli DH5α; 96-well plate, 5×10^5 CFU/mL, 37° C., judged after 8 h
Method in brief: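 Log-phase bacteria (OD600 ~0.5) resuspended in LB at 5×10^5 CFU/mL, exposed to recombinant protein at 50, 25, 12.5 μg/mL final in triplicate, 37 °C shaking at 175 rpm. OD600 read every 30 min; MIC is lowest concentration showing no growth.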

Moraxella catarrhalis = experiment: MIC against Gram-negative bacteria: Moraxella catarrhalis; conditions: for MIC: M. catarrhalis
Method in brief: as §1

Aeromonas hydrophila = experiment: MIC against Gram-negative bacteria: Aeromonas hydrophila; conditions: for MIC: A. hydrophila
Method in brief: as §1

Klebsiella pneumonia = experiment: MIC against Gram-negative bacteria: Klebsiella pneumonia; conditions: for MIC: K. pneumonia
Method in brief: as §1

Pseudomonas aeruginosa = experiment: MIC against Gram-negative bacteria: Pseudomonas aeruginosa; conditions: for MIC: P. aeruginosa
Method in brief: as §1

Serratia marcescens = experiment: MIC against Gram-negative bacteria: Serratia marcescens; conditions: for MIC: S. marcescens
Method in brief: as §1

Proteus vulgaris = experiment: MIC against Gram-negative bacteria: Proteus vulgaris; conditions: for MIC: P. vulgaris
Method in brief: as §1

Enterobacter cloacae = experiment: MIC against Gram-negative bacteria: Enterobacter cloacae; conditions: for MIC: E. cloacae
Method in brief: as §1

Citrobacter diversus = experiment: MIC against Gram-negative bacteria: Citrobacter diversus; conditions: for MIC: C. diversus
Method in brief: as §1

Proteus mirabilis = experiment: MIC against Gram-negative bacteria: Proteus mirabilis; conditions: for MIC: P. mirabilis
Method in brief: as §1

[1] = 96-well plate, 5×10^5 CFU/mL, 37° C., 10 h
[2] = E. coli BL21, 10 h cultivation at 37° C.
[3] = E. coli BL21, 96-well plate, 5×10^5 CFU/mL, 37° C., 10 h
[4] = Moraxella catarrhalis, 96-well plate, 5×10^5 CFU/mL, 37° C., 10 h
[5] = Aeromonas hydrophila, 96-well plate, 5×10^5 CFU/mL, 37° C., 10 h
[6] = Klebsiella pneumonia, 96-well plate, 5×10^5 CFU/mL, 37° C., 10 h
[7] = Pseudomonas aeruginosa, 96-well plate, 5×10^5 CFU/mL, 37° C., 10 h
[8] = Serratia marcescens, 96-well plate, 5×10^5 CFU/mL, 37° C., 10 h
[9] = Proteus vulgaris, 96-well plate, 5×10^5 CFU/mL, 37° C., 10 h
[10] = Enterobacter cloacae, 96-well plate, 5×10^5 CFU/mL, 37° C., 10 h
[11] = Citrobacter diversus, 96-well plate, 5×10^5 CFU/mL, 37° C., 10 h
[12] = Proteus mirabilis, 96-well plate, 5×10^5 CFU/mL, 37° C., 10 h

PRT640 (DMDECQDPSSCIDGQCVNTEGSYNCFCTHPMVLDASE; listed as Homo sapiens)
MIC E. coli BL21 (E. coli BL21; [1]): 25 µg/mL
MIC (E. coli DH5α): 12.5 µg/mL
MIC M. catarrhalis (Moraxella catarrhalis; [1]): 25 µg/mL
MIC A. hydrophila (Aeromonas hydrophila; [1]): 50 µg/mL
MIC K. pneumonia (Klebsiella pneumonia; [1]): 12.5 µg/mL
MIC P. aeruginosa (Pseudomonas aeruginosa; [1]): 50 µg/mL
MIC S. marcescens (Serratia marcescens; [1]): 25 µg/mL
MIC P. vulgaris (Proteus vulgaris; [1]): 12.5 µg/mL
MIC E. cloacae (Enterobacter cloacae; [1]): 25 µg/mL
MIC C. diversus (Citrobacter diversus; [1]): 12.5 µg/mL
MIC P. mirabilis (Proteus mirabilis; [1]): 50 µg/mL

PRT919 (NIDDCPGNNCKNGGACVDGVNTYNCRCPPEWTGQYCT; listed as Homo sapiens)
MIC (E. coli BL21; [2]): 12.5 µg/mL
MIC (E. coli DH5α): 50 µg/mL
MIC (Moraxella catarrhalis; 10 h cultivation at 37° C.): 12.5 µg/mL
MIC (Aeromonas hydrophila; 10 h cultivation at 37° C.): 50 µg/mL
MIC (Klebsiella pneumonia; 10 h cultivation at 37° C.): 12.5 µg/mL
MIC (Pseudomonas aeruginosa; 10 h cultivation at 37° C.): 50 µg/mL
MIC (Serratia marcescens; 10 h cultivation at 37° C.): 50 µg/mL
MIC (Proteus vulgaris; 10 h cultivation at 37° C.): 25 µg/mL
MIC (Enterobacter cloacae; 10 h cultivation at 37° C.): 25 µg/mL
MIC (Citrobacter diversus; 10 h cultivation at 37° C.): 25 µg/mL
MIC (Proteus mirabilis; 10 h cultivation at 37° C.): 25 µg/mL

PRT1408 (NEICSVDCGSHGVCMGGTCRCEEGWTGPACNQ; listed as Homo sapiens)
MIC against E. coli BL21 (E. coli BL21; E. coli BL21, 5×10^5 CFU/mL, 10 h cultivation at 37° C.): 12.5 µg/mL
MIC (E. coli DH5α): 25 µg/mL
MIC against M. catarrhalis (Moraxella catarrhalis; Moraxella catarrhalis, 5×10^5 CFU/mL, 10 h cultivation at 37° C.): 12.5 µg/mL
MIC against A. hydrophila (Aeromonas hydrophila; Aeromonas hydrophila, 5×10^5 CFU/mL, 10 h cultivation at 37° C.): 12.5 µg/mL
MIC against K. pneumonia (Klebsiella pneumonia; Klebsiella pneumonia, 5×10^5 CFU/mL, 10 h cultivation at 37° C.): 12.5 µg/mL
MIC against P. aeruginosa (Pseudomonas aeruginosa; Pseudomonas aeruginosa, 5×10^5 CFU/mL, 10 h cultivation at 37° C.): 25 µg/mL
MIC against S. marcescens (Serratia marcescens; Serratia marcescens, 5×10^5 CFU/mL, 10 h cultivation at 37° C.): 25 µg/mL
MIC against P. vulgaris (Proteus vulgaris; Proteus vulgaris, 5×10^5 CFU/mL, 10 h cultivation at 37° C.): 12.5 µg/mL
MIC against E. cloacae (Enterobacter cloacae; Enterobacter cloacae, 5×10^5 CFU/mL, 10 h cultivation at 37° C.): 25 µg/mL
MIC against C. diversus (Citrobacter diversus; Citrobacter diversus, 5×10^5 CFU/mL, 10 h cultivation at 37° C.): 12.5 µg/mL
MIC against P. mirabilis (Proteus mirabilis; Proteus mirabilis, 5×10^5 CFU/mL, 10 h cultivation at 37° C.): 12.5 µg/mL

PRT73 (TNGQCQCKENYYKLLAQDTCLPCDCFPHGSHSRTCD; listed as Homo sapiens)
MIC (μg/mL) E. coli BL21 (E. coli BL21; [3]): 50 µg/mL
MIC (E. coli DH5α): 25 µg/mL
MIC (μg/mL) M. catarrhalis (Moraxella catarrhalis; [4]): 50 µg/mL
MIC (μg/mL) A. hydrophila (Aeromonas hydrophila; [5]): 50 µg/mL
MIC (μg/mL) K. pneumonia (Klebsiella pneumonia; [6]): 100 µg/mL
MIC (μg/mL) P. aeruginosa (Pseudomonas aeruginosa; [7]): 25 µg/mL
MIC (μg/mL) S. marcescens (Serratia marcescens; [8]): 12.5 µg/mL
MIC (μg/mL) P. vulgaris (Proteus vulgaris; [9]): 50 µg/mL
MIC (μg/mL) E. cloacae (Enterobacter cloacae; [10]): 25 µg/mL
MIC (μg/mL) C. diversus (Citrobacter diversus; [11]): 12.5 µg/mL
MIC (μg/mL) P. mirabilis (Proteus mirabilis; [12]): 12.5 µg/mL

PRT135 (PGHCSSYGSICHNGGKCVEKHNGYLCDCTNSPYEGPFCK; listed as Homo sapiens)
MIC (μg/mL) E. coli BL21 (E. coli BL21; [3]): 12.5 µg/mL
MIC (E. coli DH5α): 25 µg/mL
MIC (μg/mL) M. catarrhalis (Moraxella catarrhalis; [4]): 50 µg/mL
MIC (μg/mL) A. hydrophila (Aeromonas hydrophila; [5]): 12.5 µg/mL
MIC (μg/mL) K. pneumonia (Klebsiella pneumonia; [6]): 12.5 µg/mL
MIC (μg/mL) P. aeruginosa (Pseudomonas aeruginosa; [7]): 25 µg/mL
MIC (μg/mL) S. marcescens (Serratia marcescens; [8]): 50 µg/mL
MIC (μg/mL) P. vulgaris (Proteus vulgaris; [9]): 12.5 µg/mL
MIC (μg/mL) E. cloacae (Enterobacter cloacae; [10]): 25 µg/mL
MIC (μg/mL) C. diversus (Citrobacter diversus; [11]): 25 µg/mL
MIC (μg/mL) P. mirabilis (Proteus mirabilis; [12]): 25 µg/mL

PRT444 (GISECSSQPCQNGGTCVEGVNQYRCICPPGRTGNRCQ; listed as Homo sapiens)
MIC against E. coli BL21 (E. coli BL21; [1]): 12.5 µg/mL
MIC (E. coli DH5α): 25 µg/mL
MIC against M. catarrhalis (Moraxella catarrhalis; [1]): 50 µg/mL
MIC against A. hydrophila (Aeromonas hydrophila; [1]): 50 µg/mL
MIC against K. pneumonia (Klebsiella pneumonia; [1]): 50 µg/mL
MIC against P. aeruginosa (Pseudomonas aeruginosa; [1]): 25 µg/mL
MIC against S. marcescens (Serratia marcescens; [1]): 12.5 µg/mL
MIC against P. vulgaris (Proteus vulgaris; [1]): 50 µg/mL
MIC against E. cloacae (Enterobacter cloacae; [1]): 12.5 µg/mL
MIC against C. diversus (Citrobacter diversus; [1]): 12.5 µg/mL
MIC against P. mirabilis (Proteus mirabilis; [1]): 12.5 µg/mL

PRT937 (DIDECISKPCMNHGLCHNTQGSYMCECPPGFSGMDCE; listed as Homo sapiens)
MIC (E. coli BL21; [2]): 12.5 µg/mL
MIC (E. coli DH5α): 25 µg/mL
MIC (Moraxella catarrhalis; 10 h cultivation at 37° C.): 12.5 µg/mL
MIC (Aeromonas hydrophila; 10 h cultivation at 37° C.): 50 µg/mL
MIC (Klebsiella pneumonia; 10 h cultivation at 37° C.): 25 µg/mL
MIC (Pseudomonas aeruginosa; 10 h cultivation at 37° C.): 50 µg/mL
MIC (Serratia marcescens; 10 h cultivation at 37° C.): 50 µg/mL
MIC (Proteus vulgaris; 10 h cultivation at 37° C.): 12.5 µg/mL
MIC (Enterobacter cloacae; 10 h cultivation at 37° C.): 12.5 µg/mL
MIC (Citrobacter diversus; 10 h cultivation at 37° C.): 25 µg/mL
MIC (Proteus mirabilis; 10 h cultivation at 37° C.): 50 µg/mL
